# Laboratory results: patent US9873709B2 (priority 2013, dated 2018)
# pIC50: −log10 of the molar value. Where a name gives a salt, the structure may show the parent alone.
# System: JAK1-dependent STAT6 phosphorylation downstream of IL-13 stimulation in TF-1 human erythroleukemia cells
# Experiment: cells
# Settings: TF-1, read-out: IL-13-pSTAT6 IC50
row,Compound,pIC50
1,"CN1CCC(N(C)C(=O)c2ccc(Nc3nc4c(C5=CCN(Cc6ccccc6)CC5)cccn4n3)cc2)CC1 [Example 2-8, 4-[[8-(1-benzyl-3,6-dihydro-2H-pyridin-4-yl)-[1,2,4]triazolo[1,5-a]pyridin-2-yl]amino]-N-methyl-N-(1-methyl-4-piperidyl)benzamide; hydrochloride]",6.07
2,"CN1CCC(N(C)C(=O)c2ccc(Nc3nc4c(C5=CCN(C(=O)CCO)CC5)cccn4n3)cc2)CC1 [Example 2-9, 4-[[8-[1-(3-hydroxypropanoyl)-3,6-dihydro-2H-pyridin-4-yl]-[1,2,4]triazolo[1,5-a]pyridin-2-yl]amino]-N-methyl-N-(1-methyl-4-piperidyl)benzamide]",6.21
3,"CCOC(=O)N1CC=C(c2cccn3nc(Nc4ccc(C(=O)NCCC5CCNCC5)cc4)nc23)CC1 [Example 2-13, ethyl 4-[2-[4-[2-(4-piperidyl)ethylcarbamoyl]anilino]-[1,2,4]triazolo[1,5-a]pyridin-8-yl]-3,6-dihydro-2H-pyridine-1-carboxylate]",6.47
4,"CCOC(=O)N1CC=C(c2cccn3nc(Nc4ccc(C(=O)N5CCN(c6cccnc6)CC5)cc4)nc23)CC1 [Example 2-19, ethyl 4-[2-[4-[4-(3-pyridyl)piperazine-1-carbonyl]anilino]-[1,2,4]triazolo[1,5-a]pyridin-8-yl]-3,6-dihydro-2H-pyridine-1-carboxylate]",7.25
5,"CCOC(=O)N1CC=C(c2cccn3nc(Nc4ccc(C(=O)N5CCN(C)CC(CO)C5)cc4)nc23)CC1 (stereo not drawn) [Example 2-20, ethyl 4-[2-[4-[6-(hydroxymethyl)-4-methyl-1,4-diazepane-1-carbonyl]anilino]-[1,2,4]triazolo[1,5-a]pyridin-8-yl]-3,6-dihydro-2H-pyridine-1-carboxylate]",6.59
6,"CCOC(=O)N1CC=C(c2cccn3nc(Nc4ccc(C(=O)NC5CC6(CCNCC6)C5)cc4)nc23)CC1 [Example 2-27, ethyl 4-[2-[4-(7-azaspiro[3.5]nonan-2-ylcarbamoyl)anilino]-[1,2,4]triazolo[1,5-a]pyridin-8-yl]-3,6-dihydro-2H-pyridine-1-carboxylate]",6.59
7,"O=C(CCC(F)(F)F)N1CC=C(c2cccn3nc(Nc4ccc(C(=O)N5CCC6(CCNC6)C5)cc4)nc23)CC1 (stereo not drawn) [Example 2-28, 1-[4-[2-[4-(2,7-diazaspiro[4.4]nonane-2-carbonyl)anilino]-[1,2,4]triazolo[1,5-a]pyridin-8-yl]-3,6-dihydro-2H-pyridin-1-yl]-4,4,4-trifluoro-butan-1-one]",6.68
8,"O=C(CCC(F)(F)F)N1CC=C(c2cccn3nc(Nc4ccc(C(=O)N5CCC6(CCNCC6)CC5)cc4)nc23)CC1 [Example 2-29, 1-[4-[2-[4-(3,9-diazaspiro[5.5]undecane-3-carbonyl)anilino]-[1,2,4]triazolo[1,5-a]pyridin-8-yl]-3,6-dihydro-2H-pyridin-1-yl]-4,4,4-trifluoro-butan-1-one]",7.10
9,"O=C(NCC1CNCCO1)c1ccc(Nc2nc3c(C4=CCN(C(=O)CCC(F)(F)F)CC4)cccn3n2)cc1 (stereo not drawn) [Example 2-30, N-(morpholin-2-ylmethyl)-4-[[8-[1-(4,4,4-trifluorobutanoyl)-3,6-dihydro-2H-pyridin-4-yl]-[1,2,4]triazolo[1,5-a]pyridin-2-yl]amino]benzamide]",7.39
10,"CNCCNC(=O)c1ccc(Nc2nc3c(C4=CCN(C(=O)CCC(F)(F)F)CC4)cccn3n2)cc1 [Example 2-31, N-[2-(methylamino)ethyl]-4-[[8-[1-(4,4,4-trifluorobutanoyl)-3,6-dihydro-2H-pyridin-4-yl]-[1,2,4]triazolo[1,5-a]pyridin-2-yl]amino]benzamide]",6.74
11,"O=C(NCCN1CCNCC1)c1ccc(Nc2nc3c(C4=CCN(C(=O)CCC(F)(F)F)CC4)cccn3n2)cc1 [Example 2-32, N-(2-piperazin-1-ylethyl)-4-[[8-[1-(4,4,4-trifluorobutanoyl)-3,6-dihydro-2H-pyridin-4-yl]-[1,2,4]triazolo[1,5-a]pyridin-2-yl]amino]benzamide]",6.27
12,"O=C(CCC(F)(F)F)N1CC=C(c2cccn3nc(Nc4ccc(C(=O)N5CCCCC56CCCNC6)cc4)nc23)CC1 (stereo not drawn) [Example 2-34, 1-[4-[2-[4-(1,8-diazaspiro[5.5]undecane-1-carbonyl)anilino]-[1,2,4]triazolo[1,5-a]pyridin-8-yl]-3,6-dihydro-2H-pyridin-1-yl]-4,4,4-trifluoro-butan-1-one]",6.45
13,"O=C(CCC(F)(F)F)N1CC=C(c2cccn3nc(Nc4ccc(C(=O)N5CC6(CCNC6)C5)cc4)nc23)CC1 [Example 2-35, 1-[4-[2-[4-(2,7-diazaspiro[3.4]octane-2-carbonyl)anilino]-[1,2,4]triazolo[1,5-a]pyridin-8-yl]-3,6-dihydro-2H-pyridin-1-yl]-4,4,4-trifluoro-butan-1-one]",7.02
14,"O=C(CCC(F)(F)F)N1CC=C(c2cccn3nc(Nc4ccc(C(=O)N5CC6CNCC(C5)O6)cc4)nc23)CC1 [Example 2-37, 4,4,4-trifluoro-1-[4-[2-[4-(9-oxa-3,7-diazabicyclo[3.3.1]nonane-3-carbonyl)anilino]-[1,2,4]triazolo[1,5-a]pyridin-8-yl]-3,6-dihydro-2H-pyridin-1-yl]butan-1-one]",7.07
15,"Cc1ccc(C2CCCN(C(=O)c3ccc(Nc4nc5c(C6=CCN(C(=O)CCC(F)(F)F)CC6)cccn5n4)cc3)C2)nc1 (stereo not drawn) [Example 2-50, 4,4,4-tri fluoro-1-[4-[2-[4-[3-(5-methyl-2-pyridyl)piperidine-1-carbonyl]anilino]-[1,2,4]triazolo[1,5-a]pyridin-8-yl]-3,6-dihydro-2H-pyridin-1-yl]butan-1-one]",7.19

# Stronger by pIC50, values ahead:
row,pIC50,Compound
1,8.17,"CCOC(=O)N1CC=C(c2cccn3nc(Nc4ccc(C(=O)NCC(C)(C)N5CCOCC5)cc4)nc23)CC1 [Example 2-11, ethyl 4-[2-[4-[(2-methyl-2-morpholino-propyl)carbamoyl]anilino]-[1,2,4]triazolo[1,5-a]pyridin-8-yl]-3,6-dihydro-2H-pyridine-1-carboxylate]"
2,7.77,"CCOC(=O)N1CC=C(c2cccn3nc(Nc4ccc(C(=O)N5CCCC5c5ccncc5)cc4)nc23)CC1 (stereo not drawn) [Example 2-15, ethyl 4-[2-[4-[2-(4-pyridyl)pyrrolidine-1-carbonyl]anilino]-[1,2,4]triazolo[1,5-a]pyridin-8-yl]-3,6-dihydro-2H-pyridine-1-carboxylate]"
3,7.67,"CCOC(=O)N1CC=C(c2cccn3nc(Nc4ccc(C(=O)N5CCNCC5C)cc4)nc23)CC1 (stereo not drawn) [Example 2-24, ethyl 4-[2-[4-(2-methylpiperazine-1-carbonyl)anilino]-[1,2,4]triazolo[1,5-a]pyridin-8-yl]-3,6-dihydro-2H-pyridine-1-carboxylate]"
4,7.63,"O=C(CCC(F)(F)F)N1CC=C(c2cccn3nc(Nc4ccc(C(=O)N5CCNCC5CO)cc4)nc23)CC1 (stereo not drawn) [Example 2-33, 4,4,4-trifluoro-1-[4-[2-[4-[2-(hydroxymethyl)piperazine-1-carbonyl]anilino]-[1,2,4]triazolo[1,5-a]pyridin-8-yl]-3,6-dihydro-2H-pyridin-1-yl]butan-1-one]"
5,7.46,"CCN1CCC(CN(C)C(=O)c2ccc(Nc3nc4c(C5=CCN(C(=O)CCC(F)(F)F)CC5)cccn4n3)cc2)C1 (stereo not drawn) [Example 2-39, N-[(1-ethylpyrrolidin-3-yl)methyl]-N-methyl-4-[[8-[1-(4,4,4-trifluorobutanoyl)-3,6-dihydro-2H-pyridin-4-yl]-[1,2,4]triazolo[1,5-a]pyridin-2-yl]amino]benzamide]"
6,8.28,"Cc1ccnc(CNC(=O)c2ccc(Nc3nc4c(C5=CCN(C(=O)CCC(F)(F)F)CC5)cccn4n3)cc2)c1 [Example 2-41, N-[(4-methyl-2-pyridyl)methyl]-4-[[8-[1-(4,4,4-trifluorobutanoyl)-3,6-dihydro-2H-pyridin-4-yl]-[1,2,4]triazolo[1,5-a]pyridin-2-yl]amino]benzamide]"
7,8.33,"Cc1ncccc1CNC(=O)c1ccc(Nc2nc3c(C4=CCN(C(=O)CCC(F)(F)F)CC4)cccn3n2)cc1 [Example 2-42, N-[(2-methyl-3-pyridyl)methyl]-4-[[8-[1-(4,4,4-trifluorobutanoyl)-3,6-dihydro-2H-pyridin-4-yl]-[1,2,4]triazolo[1,5-a]pyridin-2-yl]amino]benzamide]"
8,7.56,"CC(CC(=O)N1CC=C(c2cccn3nc(Nc4ccc(C(=O)N(C)C5CCN(C)CC5)cc4)nc23)CC1)C(F)(F)F (stereo not drawn) [Example 2-43, N-methyl-N-(1-methyl-4-piperidyl)-4-[[8-[1-(4,4,4-trifluoro-3-methyl-butanoyl)-3,6-dihydro-2H-pyridin-4-yl]-[1,2,4]triazolo[1,5-a]pyridin-2-yl]amino]benzamide]"
9,8.05,"O=C(CCC(F)(F)F)N1CC=C(c2cccn3nc(Nc4ccc(C(=O)N5CCC(N6CCOCC6)C5)cc4)nc23)CC1 (stereo not drawn) [Example 2-45, 4,4,4-trifluoro-1-[4-[2-[4-(3-morpholinopyrrolidine-1-carbonyl)anilino]-[1,2,4]triazolo[1,5-a]pyridin-8-yl]-3,6-dihydro-2H-pyridin-1-yl]butan-1-one]"
10,7.69,"O=C(CCC(F)(F)F)N1CC=C(c2cccn3nc(Nc4ccc(C(=O)N5CCC(N6CCCC6)CC5)cc4)nc23)CC1 [Example 2-46, 4,4,4-trifluoro-1-[4-[2-[4-(4-pyrrolidin-1-ylpiperidine-1-carbonyl)anilino]-[1,2,4]triazolo[1,5-a]pyridin-8-yl]-3,6-dihydro-2H-pyridin-1-yl]butan-1-one]"
11,7.80,"CC1CCCCN1CCCNC(=O)c1ccc(Nc2nc3c(C4=CCN(C(=O)CCC(F)(F)F)CC4)cccn3n2)cc1 (stereo not drawn) [Example 2-47, N-[3-(2-methyl-1-piperidyl)propyl]-4-[[8-[1-(4,4,4-trifluorobutanoyl)-3,6-dihydro-2H-pyridin-4-yl]-[1,2,4]triazolo[1,5-a]pyridin-2-yl]amino]benzamide]"
12,7.47,"CN1CCCC1CCNC(=O)c1ccc(Nc2nc3c(C4=CCN(C(=O)CCC(F)(F)F)CC4)cccn3n2)cc1 (stereo not drawn) [Example 2-48, N-[2-(1-methylpyrrolidin-2-yl)ethyl]-4-[[8-[1-(4,4,4-trifluorobutanoyl)-3,6-dihydro-2H-pyridin-4-yl]-[1,2,4]triazolo[1,5-a]pyridin-2-yl]amino]benzamide]"
